Measurements taken from ChEMBL document CHEMBL1201862, “PubChem BioAssay data set” (2004).
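Results reflect a 48-hour exposure of cells in 96-well plates to compound at five concentrations. Abbreviation: GI50, concentration required for 50% inhibition of growth.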 Activity calls are given as the source filed them. No stated cut-off is given here; in the data, active = GI50 up to about 1.1 µM and inactive = higher.

Columns and labels:
Assay in all cases: inhibition of tumour cell growth, NCI panel, 48 h
K562 = system: K562
HCT-15 = system: HCT-15
PC-3 = system: PC-3
NCI-H460 = system: NCI-H460
A498 = system: A498
RPMI-8226 = system: RPMI-8226
COLO 205 = system: COLO 205
EKVX = system: EKVX
MDA-N = system: MDA-N
NCI-H23 = system: NCI-H23
UACC-257 = system: UACC-257
OVCAR-3 = system: OVCAR-3
SF-268 = system: SF-268
HL-60 = system: HL-60
NCI-H226 = system: NCI-H226
Malme-3M = system: Malme-3M
KM12 = system: KM12
Hs-578T = system: Hs-578T
SF-539 = system: SF-539
SK-MEL-2 = system: SK-MEL-2

Measured: GI50

O=c1[nH]nc(Cc2ccccc2)n1C1CC1
inactive: K562 > 100 µM | PC-3 > 100 µM | NCI-H460 > 100 µM | A498 > 100 µM | RPMI-8226 > 100 µM | COLO 205 > 100 µM | EKVX > 100 µM | MDA-N > 100 µM | NCI-H23 > 100 µM | UACC-257 > 100 µM | OVCAR-3 > 100 µM | SF-268 > 100 µM | HL-60 > 100 µM | NCI-H226 > 100 µM | Malme-3M > 100 µM | KM12 > 100 µM | Hs-578T > 100 µM | SF-539 > 100 µM
> 100 µM: HCT-15

O[C@@]12Cc3c([nH]c4ccccc34)[C@@H]3Oc4c(-c5ccccc5)ccc5c4[C@@]31CCN(CC1CC1)[C@@H]2C5
1.95 µM: HCT-15
inactive: K562 2.33 µM | PC-3 1.84 µM | NCI-H460 1.72 µM | A498 1.47 µM | RPMI-8226 3.65 µM | COLO 205 1.81 µM | EKVX 2.01 µM | MDA-N 1.73 µM | NCI-H23 1.78 µM | UACC-257 1.84 µM | OVCAR-3 1.49 µM | SF-268 3.42 µM | HL-60 2.06 µM | SK-MEL-2 1.84 µM | Malme-3M 1.9 µM | KM12 1.5 µM | Hs-578T 1.85 µM

O=C1/C(=C/Cc2ccco2)N=C(c2ccccc2)N1c1nc2c(Cl)cc(Cl)cc2s1
27.9 µM: HCT-15
inactive: K562 25.1 µM | PC-3 28.3 µM | NCI-H460 32.2 µM | A498 15.2 µM | RPMI-8226 12.4 µM | COLO 205 40.5 µM | EKVX 15 µM | MDA-N 20.9 µM | UACC-257 34.4 µM | OVCAR-3 22.5 µM | SF-268 40.3 µM | HL-60 20.9 µM | SK-MEL-2 23.7 µM | KM12 27.7 µM | Hs-578T 23.6 µM | SF-539 23 µM

CN(C)CCCNC(CC#N)CCC#N (stereo not drawn)
> 10 µM: HCT-15
inactive: K562 > 10 µM | PC-3 > 10 µM | NCI-H460 > 10 µM | A498 > 10 µM | COLO 205 > 10 µM | EKVX > 10 µM | MDA-N > 10 µM | NCI-H23 > 10 µM | UACC-257 > 10 µM | OVCAR-3 > 10 µM | SF-268 > 10 µM | HL-60 > 10 µM | SK-MEL-2 > 10 µM | NCI-H226 > 10 µM | Malme-3M > 10 µM | KM12 > 10 µM | Hs-578T > 10 µM | SF-539 > 10 µM

COP(C)(=O)C1=CCN(C(=O)OCC[Si](C)(C)C)CC1 (stereo not drawn)
inactive: PC-3 > 100 µM | NCI-H460 > 100 µM | A498 > 100 µM | RPMI-8226 > 100 µM | COLO 205 > 100 µM | EKVX > 100 µM | MDA-N > 100 µM | NCI-H23 > 100 µM | UACC-257 > 100 µM | OVCAR-3 > 100 µM | SF-268 > 100 µM | SK-MEL-2 > 100 µM | NCI-H226 > 100 µM | Malme-3M > 100 µM | KM12 > 100 µM | Hs-578T > 100 µM
> 100 µM: HCT-15

CON(C)C(=O)[C@H]1C[C@@]1(C)CO
> 100 µM: HCT-15
inactive: K562 > 100 µM | PC-3 > 100 µM | NCI-H460 > 100 µM | A498 > 100 µM | COLO 205 > 100 µM | EKVX > 100 µM | MDA-N > 100 µM | NCI-H23 > 100 µM | UACC-257 > 100 µM | OVCAR-3 > 100 µM | SF-268 > 100 µM | SK-MEL-2 > 100 µM | NCI-H226 > 100 µM | Malme-3M > 100 µM | KM12 > 100 µM | Hs-578T > 100 µM

N#Cc1nc(-c2ccccn2)c(-c2ccccn2)nc1C#N
0.682 µM: HCT-15
active: NCI-H460 0.47 µM | NCI-H226 0.593 µM
inactive: K562 5.85 µM | PC-3 4.88 µM | A498 2.09 µM | RPMI-8226 2.83 µM | COLO 205 1.97 µM | EKVX 3.15 µM | MDA-N 2.61 µM | NCI-H23 2.9 µM | UACC-257 3.65 µM | OVCAR-3 3.79 µM | SF-268 1.25 µM | SK-MEL-2 3.59 µM | Malme-3M 1.45 µM | KM12 2.52 µM | Hs-578T 11.2 µM | SF-539 4.19 µM

C=CC(C)CCC(C/C=C(\C)CCC=C(C)C)C(=C)CCCC(C)C (stereo not drawn)
> 100 µM: HCT-15
inactive: K562 > 100 µM | PC-3 > 100 µM | NCI-H460 > 100 µM | A498 > 100 µM | RPMI-8226 > 100 µM | COLO 205 > 100 µM | EKVX > 100 µM | MDA-N > 100 µM | NCI-H23 > 100 µM | UACC-257 > 100 µM | OVCAR-3 > 100 µM | SF-268 > 100 µM | HL-60 > 100 µM | SK-MEL-2 > 100 µM | Malme-3M > 100 µM | KM12 > 100 µM | Hs-578T > 100 µM | SF-539 > 100 µM

CON(C)C(=O)C(C)NC(=O)OC(C)(C)C (stereo not drawn)
inactive: K562 > 100 µM | PC-3 > 100 µM | NCI-H460 > 100 µM | A498 > 100 µM | RPMI-8226 > 100 µM | COLO 205 > 100 µM | EKVX > 100 µM | MDA-N > 100 µM | NCI-H23 > 100 µM | UACC-257 > 100 µM | OVCAR-3 > 100 µM | SF-268 > 100 µM | HL-60 > 100 µM | NCI-H226 > 100 µM | Malme-3M > 100 µM | KM12 > 100 µM | Hs-578T > 100 µM | SF-539 > 100 µM
> 100 µM: HCT-15

Cn1c2ccccc2c(=NNc2ccccc2C(=O)O)c2ccccc21
inactive: K562 8.97 µM | PC-3 12.3 µM | NCI-H460 13.2 µM | RPMI-8226 9.82 µM | COLO 205 16.3 µM | EKVX 11.8 µM | MDA-N 21.2 µM | NCI-H23 20.9 µM | UACC-257 23.8 µM | OVCAR-3 10.8 µM | SF-268 15.8 µM | HL-60 17 µM | SK-MEL-2 18.7 µM | NCI-H226 16.2 µM | Malme-3M 20.4 µM | KM12 12.7 µM | Hs-578T 21.9 µM | SF-539 13.1 µM
7.87 µM: HCT-15

O=C1C(Cl)=C(Cl)C(Cl)(Cl)C(Cl)C1(Cl)Cl (stereo not drawn)
inactive: K562 24.6 µM | PC-3 25 µM | NCI-H460 19.9 µM | A498 15.2 µM | RPMI-8226 19.6 µM | COLO 205 17.9 µM | EKVX 20.8 µM | MDA-N 23.7 µM | NCI-H23 21.9 µM | UACC-257 18.4 µM | OVCAR-3 17.7 µM | SF-268 19.6 µM | HL-60 18.4 µM | SK-MEL-2 15.8 µM | Malme-3M 18.8 µM | KM12 20.1 µM | Hs-578T 21.3 µM | SF-539 17.5 µM
29.6 µM: HCT-15

Cc1nc2ccccc2n1Cc1nnc(-c2ccccc2)o1
inactive: K562 33.9 µM | PC-3 > 100 µM | NCI-H460 91 µM | A498 > 100 µM | RPMI-8226 75 µM | COLO 205 74.6 µM | EKVX > 100 µM | MDA-N 70.3 µM | NCI-H23 > 100 µM | UACC-257 > 100 µM | OVCAR-3 > 100 µM | SF-268 > 100 µM | HL-60 > 100 µM | SK-MEL-2 > 100 µM | Malme-3M > 100 µM | KM12 20.6 µM | Hs-578T > 100 µM | SF-539 27.2 µM
> 100 µM: HCT-15

CN1C(=O)C(CC(=O)O)NC1=S (stereo not drawn)
> 100 µM: HCT-15
inactive: K562 > 100 µM | PC-3 > 100 µM | NCI-H460 > 100 µM | A498 > 100 µM | RPMI-8226 > 100 µM | COLO 205 > 100 µM | EKVX 56.6 µM | MDA-N > 100 µM | NCI-H23 > 100 µM | UACC-257 > 100 µM | OVCAR-3 > 100 µM | SF-268 > 100 µM | HL-60 > 100 µM | SK-MEL-2 > 100 µM | Malme-3M > 100 µM | KM12 > 100 µM | Hs-578T > 100 µM | SF-539 > 100 µM

CN(C)CCCNc1cc(O)c2c(c1O)C(=O)c1ccccc1C2=O
inactive: K562 2.79 µM | PC-3 13.8 µM | NCI-H460 6.46 µM | A498 19.5 µM | RPMI-8226 12.9 µM | COLO 205 11.5 µM | EKVX 15 µM | MDA-N 14.3 µM | NCI-H23 13.3 µM | UACC-257 13.6 µM | OVCAR-3 11.3 µM | SF-268 16.8 µM | SK-MEL-2 19.8 µM | NCI-H226 18.2 µM | Malme-3M 31.3 µM | KM12 9.4 µM | Hs-578T 29.2 µM | SF-539 12.1 µM
5.26 µM: HCT-15

CC1OC(O[C@H]2C3C=CO[C@@H](OC4OC(CO)C(O)C(O)C4O)C3[C@@]3(COC(=O)/C=C/c4ccccc4)O[C@@H]23)C(O)C(O)C1O (stereo partly drawn)
> 100 µM: HCT-15
inactive: K562 > 100 µM | PC-3 > 100 µM | NCI-H460 > 100 µM | A498 > 100 µM | RPMI-8226 > 100 µM | COLO 205 > 100 µM | EKVX > 100 µM | MDA-N > 100 µM | NCI-H23 > 100 µM | UACC-257 > 100 µM | OVCAR-3 > 100 µM | SF-268 > 100 µM | HL-60 > 100 µM | SK-MEL-2 > 100 µM | NCI-H226 > 100 µM | Malme-3M > 100 µM | KM12 > 100 µM | Hs-578T > 100 µM
